What all share (assay type): biochemical
One test concerns the target T1, FGFR2 kinase (Homo sapiens, UniProt P21802).
T1 construct: purchased Carna 08-134
The test can be described thus: IC50 evaluation assay of FGFR2 kinase inhibition (Caliper). The note with it: 28° C.; average of two tests; read-out: IC50 (nM) inhibiting FGFR 2 kinase. The protocol:
(§1) 1. The compound was dissolved in 100% DMSO, diluted into solutions with appropriate concentration gradients with water according to experimental requirement, and added to a 96-well plate.
2. FGFR1 kinase (Carna, Cat. No. 08-133, Lot. No. 09CBS-0989) and FGFR2 kinase (Carna, Cat. No. 08-134, Lot. No. 07CBS-2468), JAK3 kinase (Carna, Cat. No. 08-135, Lot. No. 06CBS-3177) were diluted to the optimum concentration with the following buffer solution: 50 mM HEPES, pH 7.5, 0.0015% Brij-35, 2 mM DTT. Transfer to the 96-well plate and incubate with the compound at 28° C. for a period of time.
(§2) 3. The buffer solution (100 mM HEPES, pH 7.5, 0.0015% Brij-35, 0.2% Coating Reagent and […]) was added to terminate the reaction.
(§3) 4. The conversion rate was read with Caliper Reader. The inhibition rate was calculated as the average of two tests.

The target of another test is T2, c-Src kinase (Homo sapiens, UniProt P12931).
T2 construct: purchased Carna 08-173
T2 sequence (P12931 whole entry): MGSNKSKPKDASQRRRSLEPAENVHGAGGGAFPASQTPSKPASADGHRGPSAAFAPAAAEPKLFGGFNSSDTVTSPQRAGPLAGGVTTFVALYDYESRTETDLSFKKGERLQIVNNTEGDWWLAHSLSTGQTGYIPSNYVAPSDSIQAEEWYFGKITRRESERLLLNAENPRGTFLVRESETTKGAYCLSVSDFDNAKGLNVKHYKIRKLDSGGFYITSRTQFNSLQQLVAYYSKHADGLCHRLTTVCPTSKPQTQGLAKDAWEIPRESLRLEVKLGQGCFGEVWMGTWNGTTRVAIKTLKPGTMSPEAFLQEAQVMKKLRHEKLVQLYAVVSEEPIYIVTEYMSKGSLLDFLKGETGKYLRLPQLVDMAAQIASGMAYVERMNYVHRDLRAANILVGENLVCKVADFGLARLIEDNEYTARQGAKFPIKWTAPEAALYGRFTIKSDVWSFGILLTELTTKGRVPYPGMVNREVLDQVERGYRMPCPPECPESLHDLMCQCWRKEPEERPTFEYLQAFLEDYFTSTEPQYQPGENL
The test can be described thus: IC50 evaluation assay of Src family kinase inhibition: c-Src. Particulars: 28° C.; average of two tests; read-out: IC50 (nM) inhibiting Src family kinase c-Src. The protocol: as §1
(§4) 2. c-Src kinase (Carna, Cat. No. 08-173, Lot. No. 05CBS-1367), LYNαkinase (Carna, Cat. No. 08-171, Lot. No. 06CBS-3296D), FYN kinase (Carna, Cat. No. 08-068, Lot. No. 05CBS-1032), LCK kinase (Carna, Cat. No. 08-170, Lot. No. 07CBS-2482), HCK kinase (BPS, Cat. No. 40440, Lot. No. 1001), FGR kinase (Carna, Cat. No. 08-166, Lot. No. 05CBS-2781), YES kinase (Carna, Cat. No. 08-175, Lot. No. 06CBS-3247) were diluted to the optimum concentration with the following buffer solution: 50 mM HEPES, pH 7.5, 0.0015% Brij-35, 10 mM MgCl2, 2 mM DTT. Transfer to the 96-well plate and incubate with the compound at 28° C. for a period of time.
as §2, §3

In the next test the target is T3, LYNα kinase (Homo sapiens, UniProt P07948).
T3 construct: purchased Carna 08-171
T3 sequence (P07948 whole entry): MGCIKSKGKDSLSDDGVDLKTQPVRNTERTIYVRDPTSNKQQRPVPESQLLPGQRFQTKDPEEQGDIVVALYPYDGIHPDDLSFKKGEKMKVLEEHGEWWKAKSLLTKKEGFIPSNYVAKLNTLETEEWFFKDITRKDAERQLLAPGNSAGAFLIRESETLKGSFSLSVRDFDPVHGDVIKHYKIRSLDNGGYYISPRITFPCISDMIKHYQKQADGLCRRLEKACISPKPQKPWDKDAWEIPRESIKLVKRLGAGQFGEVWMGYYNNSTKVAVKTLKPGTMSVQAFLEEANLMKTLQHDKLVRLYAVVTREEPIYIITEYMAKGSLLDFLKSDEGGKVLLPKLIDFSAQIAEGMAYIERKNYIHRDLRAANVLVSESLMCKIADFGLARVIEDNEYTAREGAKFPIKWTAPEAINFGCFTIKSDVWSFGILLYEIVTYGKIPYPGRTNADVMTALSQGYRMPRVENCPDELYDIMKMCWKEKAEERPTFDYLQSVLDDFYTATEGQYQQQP
The test can be described thus: IC50 evaluation assay of Src family kinase inhibition: LYNα. The note with it: 28° C.; average of two tests; read-out: IC50 (nM) inhibiting Src family kinase LYNα. The protocol:
as §1, §4, §2, §3

The next test concerns the target T4, HCK kinase (Homo sapiens, UniProt P08631).
T4 construct: purchased BPS 40440
The test can be described thus: IC50 evaluation assay of Src family kinase inhibition: HCK. The note with it: 28° C.; average of two tests; read-out: IC50 (nM) inhibiting Src family kinase HCK. The protocol:
as §1, §4, §2, §3

The target in a further test is T5, YES kinase (Homo sapiens, UniProt P07947).
T5 construct: purchased Carna 08-175
T5 sequence (P07947 whole entry): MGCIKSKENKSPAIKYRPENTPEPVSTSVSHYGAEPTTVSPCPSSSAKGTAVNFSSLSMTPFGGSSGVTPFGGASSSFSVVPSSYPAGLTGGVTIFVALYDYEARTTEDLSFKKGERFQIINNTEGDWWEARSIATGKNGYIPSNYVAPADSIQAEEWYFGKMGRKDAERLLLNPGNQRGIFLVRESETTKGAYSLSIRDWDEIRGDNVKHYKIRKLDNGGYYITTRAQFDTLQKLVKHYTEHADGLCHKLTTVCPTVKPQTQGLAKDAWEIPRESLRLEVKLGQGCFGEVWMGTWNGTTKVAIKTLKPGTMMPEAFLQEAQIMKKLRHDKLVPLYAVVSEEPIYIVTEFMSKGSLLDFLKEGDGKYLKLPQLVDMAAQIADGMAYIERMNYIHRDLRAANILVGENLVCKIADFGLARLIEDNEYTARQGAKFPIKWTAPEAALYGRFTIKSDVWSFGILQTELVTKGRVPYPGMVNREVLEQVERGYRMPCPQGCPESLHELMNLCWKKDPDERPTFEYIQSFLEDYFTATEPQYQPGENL
The test can be described thus: IC50 evaluation assay of Src family kinase inhibition: YES. The note with it: 28° C.; average of two tests; read-out: IC50 (nM) inhibiting Src family kinase YES. The protocol:
as §1, §4, §2, §3

For a further test, the target named is T6, JAK1 kinase (Homo sapiens, UniProt P23458).
T6 construct: purchased Carna 08-144
T6 sequence (P23458 whole entry): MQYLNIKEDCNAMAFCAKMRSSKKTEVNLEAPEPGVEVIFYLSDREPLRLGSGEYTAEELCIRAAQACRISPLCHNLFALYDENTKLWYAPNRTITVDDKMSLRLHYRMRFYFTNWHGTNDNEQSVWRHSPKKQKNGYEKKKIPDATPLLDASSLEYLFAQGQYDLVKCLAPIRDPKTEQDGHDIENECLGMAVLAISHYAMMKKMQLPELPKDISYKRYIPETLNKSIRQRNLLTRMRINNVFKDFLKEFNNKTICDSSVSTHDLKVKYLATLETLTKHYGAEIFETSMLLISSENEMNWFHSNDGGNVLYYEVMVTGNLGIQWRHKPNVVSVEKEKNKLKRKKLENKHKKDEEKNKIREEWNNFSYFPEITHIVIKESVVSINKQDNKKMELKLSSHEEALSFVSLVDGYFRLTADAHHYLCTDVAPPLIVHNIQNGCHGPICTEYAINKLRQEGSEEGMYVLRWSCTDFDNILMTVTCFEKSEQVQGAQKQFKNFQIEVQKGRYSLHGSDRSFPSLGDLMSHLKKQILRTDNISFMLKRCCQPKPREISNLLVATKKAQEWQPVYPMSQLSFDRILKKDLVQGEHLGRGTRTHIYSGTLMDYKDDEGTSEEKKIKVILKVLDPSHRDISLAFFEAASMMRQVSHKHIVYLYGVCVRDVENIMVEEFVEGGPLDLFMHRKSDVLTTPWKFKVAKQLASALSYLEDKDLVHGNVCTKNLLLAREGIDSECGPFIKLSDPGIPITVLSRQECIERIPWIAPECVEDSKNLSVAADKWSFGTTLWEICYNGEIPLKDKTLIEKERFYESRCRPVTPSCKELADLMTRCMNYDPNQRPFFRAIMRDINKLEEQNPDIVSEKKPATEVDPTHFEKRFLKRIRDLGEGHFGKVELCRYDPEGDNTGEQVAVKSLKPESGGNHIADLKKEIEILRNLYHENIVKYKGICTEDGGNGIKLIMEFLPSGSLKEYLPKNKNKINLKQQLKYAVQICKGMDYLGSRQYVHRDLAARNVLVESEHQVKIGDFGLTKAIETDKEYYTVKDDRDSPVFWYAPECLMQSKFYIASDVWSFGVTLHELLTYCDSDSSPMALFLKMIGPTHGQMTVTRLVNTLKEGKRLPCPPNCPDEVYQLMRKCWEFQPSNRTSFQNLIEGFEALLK
The test can be described thus: IC50 evaluation assay on JAK1 kinase inhibition (Caliper). Particulars: adenosine triphosphate at Km; 1 hour at 28° C.; average of two tests; read-out: IC50 (nM) inhibiting JAK 1 kinase. The protocol:
1. The compound was dissolved in 100% DMSO, diluted into solutions with appropriate concentration gradients with water according to experimental requirement, and added to a 384-well plate.
2. JAK2 kinase (Carna, Cat. No. 08-045, Lot. No. 07CBS-1927) and JAK3 kinase (Carna, Cat. No. 08-046, Lot. No. 08CBS-0371) were diluted to the optimum concentration with the following buffer solution: 50 mM HEPES, pH 7.5, 0.0015% Brij-35, 2 mM DTT. JAK1 kinase (Carna, Cat. No. 08-144, Lot. No. 11CBS-0144D) was diluted to the optimum concentration with the following buffer solution: 25 mM HEPES pH 7.5, 0.01% Brij-35, 2 mM DTT, 0.01M Triton. Transfer to the 384-well plate and incubated with the compound for a period of time.
3. […] The substrate of JAK1 was diluted to the optimum concentration with the following buffer: 25 mM HEPES, pH 7.5, 0.01% Brij-35, 10 mM MgCl2, 0.01M Triton, adenosine triphosphate at Km. Add to the 384-well plate to initiate there action and react for 1 hour at 28° C.
4. 1 Eq. of sulfuric acid solution was added to terminate the reaction, the conversion rate was read with Caliper Reader. The inhibition rate was calculated as the average of two tests.

The record followed here is patent US10494378B2, “Fused ring pyrimidine compound, intermediate, and preparation method, composition and use thereof” (GUANGZHOU MAXINOVEL PHARMACEUTICALS CO., LTD., priority 2015, dated 2019).

SMILES strings stand for the structures.

T1 sequence (P21802 22-821): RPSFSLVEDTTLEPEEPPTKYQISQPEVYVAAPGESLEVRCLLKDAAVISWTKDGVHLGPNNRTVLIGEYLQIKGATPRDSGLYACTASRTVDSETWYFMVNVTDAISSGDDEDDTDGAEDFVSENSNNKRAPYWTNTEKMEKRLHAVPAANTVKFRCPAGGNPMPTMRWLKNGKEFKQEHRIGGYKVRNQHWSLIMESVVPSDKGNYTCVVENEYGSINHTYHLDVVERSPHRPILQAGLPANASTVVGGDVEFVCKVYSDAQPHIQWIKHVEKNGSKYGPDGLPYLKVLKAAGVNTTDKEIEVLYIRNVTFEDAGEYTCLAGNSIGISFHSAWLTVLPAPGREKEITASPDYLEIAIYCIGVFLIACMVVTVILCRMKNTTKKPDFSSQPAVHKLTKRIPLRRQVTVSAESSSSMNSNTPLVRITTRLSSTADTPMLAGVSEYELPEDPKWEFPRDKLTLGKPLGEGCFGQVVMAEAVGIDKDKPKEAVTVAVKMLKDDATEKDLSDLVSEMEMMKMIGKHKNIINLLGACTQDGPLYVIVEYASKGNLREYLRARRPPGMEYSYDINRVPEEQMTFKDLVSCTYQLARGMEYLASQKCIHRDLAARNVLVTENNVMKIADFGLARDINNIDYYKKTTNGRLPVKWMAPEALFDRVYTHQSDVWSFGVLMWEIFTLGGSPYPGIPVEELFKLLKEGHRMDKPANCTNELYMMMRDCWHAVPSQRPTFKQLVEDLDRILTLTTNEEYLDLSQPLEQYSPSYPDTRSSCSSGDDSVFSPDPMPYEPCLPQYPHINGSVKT
T4 sequence (P08631 whole entry): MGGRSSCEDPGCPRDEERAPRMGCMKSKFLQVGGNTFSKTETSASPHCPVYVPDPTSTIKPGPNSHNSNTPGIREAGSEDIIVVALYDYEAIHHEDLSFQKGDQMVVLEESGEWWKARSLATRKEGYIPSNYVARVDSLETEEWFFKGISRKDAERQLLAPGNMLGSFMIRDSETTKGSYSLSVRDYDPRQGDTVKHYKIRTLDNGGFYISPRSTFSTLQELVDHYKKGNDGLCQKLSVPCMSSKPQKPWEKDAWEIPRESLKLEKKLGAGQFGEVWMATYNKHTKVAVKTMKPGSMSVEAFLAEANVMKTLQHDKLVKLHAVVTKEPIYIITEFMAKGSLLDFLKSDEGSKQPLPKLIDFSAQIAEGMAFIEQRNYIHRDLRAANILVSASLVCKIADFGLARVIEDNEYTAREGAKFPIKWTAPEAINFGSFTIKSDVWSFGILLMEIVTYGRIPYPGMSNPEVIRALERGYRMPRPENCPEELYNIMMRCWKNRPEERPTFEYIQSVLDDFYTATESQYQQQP

With `COc1cc(F)ccc1-c1c(C)sc2cnc(Nc3cnn(C4CCNCC4)c3)nc12` [Compound 31, N-[7-(4-fluoro-2-methoxyphenyl)-6-methylthieno[3,2-d]pyrimidinyl-2-yl]-1-(piperidinyl-4-yl)-1H-pyrazol-4-amine], the IC50 on FGFR2 kinase worked out at 10 nM; on c-Src kinase it was 6 nM; at LYNα kinase, 1.3 nM; at HCK kinase it was 30 nM; on YES kinase, 5.8 nM.
With `COc1cc(F)ccc1-c1c(C)sc2cnc(Nc3cnn(C4CCN(CCO)CC4)c3)nc12` [Compound 34, 2-[4-(4-{[7-(4-fluoro-2-methoxyphenyl)-6-methylthieno[3,2-d]pyrimidinyl-2-yl]amino}-1H-pyrazol-1-yl)-piperidinyl-1-yl]-1-ethanol], the IC50 on JAK1 kinase was 5.6 nM; on FGFR2 kinase it was 8.9 nM; on c-Src kinase, 6.3 nM; on LYNα kinase it was under 5 nM; on HCK kinase, 27 nM; on YES kinase it was 6.8 nM.

Usually IC50 stands for the concentration at which inhibition is half-maximal.
